# What was measured:
# Experiment in all cases: MIC, broth microdilution (NCCLS)
# Assay type in all cases: cell-based
# [1] = tested on: S. aureus GC1079 (tet(K)); conditions: Staphylococcus aureus, Mueller-Hinton II broth, 18-22 hours at 35° C.
# Experimental: (§1) Methods for in Vitro Antibacterial Evaluation
# (§2) The Minimum Inhibitory Concentration (MIC)
# (§3) Antimicrobial susceptibility testing. The in vitro activities of the antibiotics are determined by the broth microdilution method as recommended by the National Committee for Clinical Laboratory Standards (NCCLS) (1). Mueller-Hinton II broth (MHBII)(BBL Cockeysville, Md.) is the medium employed in the testing procedures. Microtiter plates containing serial dilutions of each antimicrobial agent are inoculated with each organism to yield the appropriate density (10^5 CFU/ml) in a 100 μl final volume. The plates are incubated for 18-22 hours at 35° C. in ambient air.
# (§4) 1. NCCLS. 2000. Methods for Dilution Antimicrobial Susceptibility Tests for Bacteria That Grow Aerobically; Approved Standards: M7-A5, vol. 20. National Committe for Clinical Laboratory Standards, Wayne, Pa.
# [2] = tested on: S. pneumoniae* GC4465 (Clinical); conditions: Streptococcus pneumoniae, Mueller-Hinton II broth, 18-22 hours at 35° C.
# Experimental: as §1, §2, §3, §4
# [3] = tested on: E. coli GC2203 (ATCC Control); conditions: Escherichia coli, Mueller-Hinton II broth, 18-22 hours at 35° C.
# Experimental: as §1, §2, §3, §4
# [4] = tested on: E. faecalis GC4555 (ATCC Control); conditions: Enterococcus faecalis, Mueller-Hinton II broth, 18-22 hours at 35° C.
# Experimental: as §1, §2, §3, §4
# [5] = tested on: S. aureus GC2216 (ATCC Control); conditions: Staphylococcus aureus, Mueller-Hinton II broth, 18-22 hours at 35° C.
# Experimental: as §1, §2, §3, §4
# [6] = tested on: S. aureus GC1131 (Clinical); conditions: Staphylococcus aureus, Mueller-Hinton II broth, 18-22 hours at 35° C.
# Experimental: as §1, §2, §3, §4
# [7] = tested on: S. pyogenes* GC4563 (Clinical); conditions: Streptococcus pyogenes, Mueller-Hinton II broth, 18-22 hours at 35° C.
# Experimental: as §1, §2, §3, §4
# [8] = tested on: H. influenzae<> GC6896 (ATCC Control); conditions: Haemophilus influenzae, Mueller-Hinton II broth, 18-22 hours at 35° C.
# Experimental: as §1, §2, §3, §4
# [9] = tested on: S. aureus GC6466 (tet(M)); conditions: Staphylococcus aureus, Mueller-Hinton II broth, 18-22 hours at 35° C.
# Experimental: as §1, §2, §3, §4
# [10] = tested on: E. coli GC4559 (parent GC4560); conditions: Escherichia coli, Mueller-Hinton II broth, 18-22 hours at 35° C.
# Experimental: as §1, §2, §3, §4
# [11] = tested on: E. coli GC2270 (tet(M)); conditions: Escherichia coli
# Experimental: as §1, §2, §3, §4
# [12] = tested on: C. albicans GC3066 ATCC (Control); conditions: Candida albicans, Mueller-Hinton II broth, 18-22 hours at 35° C.
# Experimental: as §1, §2, §3, §4
# [13] = tested on: S. aureus GC4536 (Smith MP -In Vivo); conditions: Staphylococcus aureus, Mueller-Hinton II broth, 18-22 hours at 35° C.
# Experimental: as §1, §2, §3, §4
# [14] = tested on: S. pneumoniae* GC1894 (Clinical); conditions: Streptococcus pneumoniae, Mueller-Hinton II broth, 18-22 hours at 35° C.
# Experimental: as §1, §2, §3, §4
# [15] = tested on: M. catarrhalis* GC6907 (Clinical); conditions: Moraxella catarrhalis, Mueller-Hinton II broth, 18-22 hours at 35° C.
# Experimental: as §1, §2, §3, §4
# [16] = tested on: E. coli GC1073 (tet(B)); conditions: Escherichia coli
# Experimental: as §1, §2, §3, §4
# [17] = tested on: E. faecalis GC2242 (Van-resistant); conditions: Enterococcus faecalis, Mueller-Hinton II broth, 18-22 hours at 35° C.
# Experimental: as §1, §2, §3, §4
# [18] = tested on: E. coli GC4560 (IMP mutant); conditions: Escherichia coli
# Experimental: as §1, §2, §3, §4
smiles,measurement,setting,value
"COc1cc(OC)c(-c2nc3cc(N(C)C)c4c(c3o2)C(=O)C2=C(O)[C@]3(O)C(=O)C(C(N)=O)=C(O)[C@@H](N(C)C)[C@@H]3C[C@@H]2C4)c(OC)c1 [Example 15, (6aR,7aS,8S,11aS)-5,8-bis(dimethylamino)-9,11a,12-trihydroxy-11,13-dioxo-2-(2,4,6-trimethoxyphenyl)-6,6a,7,7a,8,11,11a,13-octahydrotetraceno[2,1-d][1,3]oxazole-10-carboxamide]",MIC,[1],64 µg/mL
same,MIC,[2],> 64 µg/mL
same,MIC,[3],> 64 µg/mL
same,MIC,[4],64 µg/mL
same,MIC,[5],64 µg/mL
same,MIC,[6],64 µg/mL
same,MIC,[7],> 64 µg/mL
same,MIC,[8],> 64 µg/mL
same,MIC,[9],64 µg/mL
same,MIC,[10],> 64 µg/mL
same,MIC,[11],> 64 µg/mL
same,MIC,[12],> 64 µg/mL
same,MIC,[13],64 µg/mL
same,MIC,[14],> 64 µg/mL
same,MIC,[15],64 µg/mL
same,MIC,[16],> 64 µg/mL
same,MIC,[17],64 µg/mL
same,MIC,[18],32 µg/mL
"CCOc1cc(OCC)c(-c2nc3cc(N(C)C)c4c(c3o2)C(=O)C2=C(O)[C@]3(O)C(=O)C(C(N)=O)=C(O)[C@@H](N(C)C)[C@@H]3C[C@@H]2C4)cc1OCC [Example 16, (6aR,7aS,8S,11aS)-5,8-bis(dimethylamino)-9,11a,12-trihydroxy-11,13-dioxo-2-(2,4,5-triethoxyphenyl)-6,6a,7,7a,8,11,11a,13-octahydrotetraceno[2,1-d][1,3]oxazole-10-carboxamide]",MIC,[1],16 µg/mL
same,MIC,[2],> 64 µg/mL
same,MIC,[3],> 64 µg/mL
same,MIC,[4],16 µg/mL
same,MIC,[5],16 µg/mL
same,MIC,[6],16 µg/mL
same,MIC,[7],64 µg/mL
same,MIC,[8],> 64 µg/mL
same,MIC,[9],16 µg/mL
same,MIC,[10],> 64 µg/mL
same,MIC,[11],> 64 µg/mL
same,MIC,[12],> 64 µg/mL
same,MIC,[13],16 µg/mL
same,MIC,[14],> 64 µg/mL
same,MIC,[15],> 64 µg/mL
same,MIC,[16],> 64 µg/mL
same,MIC,[17],16 µg/mL
same,MIC,[18],16 µg/mL
"CN(C)c1cc2nc(-c3cc4ccccc4o3)oc2c2c1C[C@H]1C[C@H]3[C@H](N(C)C)C(O)=C(C(N)=O)C(=O)[C@@]3(O)C(O)=C1C2=O [Example 18, (6aR,7aS,8S,11aS)-2-(1-benzofuran-2-yl)-5,8-bis(dimethylamino)-9,11a,12-trihydroxy-11,13-dioxo-6,6a,7,7a,8,11,11a,13-octahydrotetraceno[2,1-d][1,3]oxazole-10-carboxamide]",MIC,[1],4 µg/mL
same,MIC,[2],16 µg/mL
same,MIC,[3],> 64 µg/mL
same,MIC,[4],4 µg/mL
same,MIC,[5],4 µg/mL
same,MIC,[6],4 µg/mL
same,MIC,[7],16 µg/mL
same,MIC,[8],> 64 µg/mL
same,MIC,[9],4 µg/mL
same,MIC,[10],> 64 µg/mL
same,MIC,[11],> 64 µg/mL
same,MIC,[12],> 64 µg/mL
same,MIC,[13],4 µg/mL
same,MIC,[14],16 µg/mL
same,MIC,[15],8 µg/mL
same,MIC,[16],> 64 µg/mL
same,MIC,[17],4 µg/mL
same,MIC,[18],4 µg/mL
"CN(C)c1cc2nc(-c3cc4ccccc4n3C)oc2c2c1C[C@H]1C[C@H]3[C@H](N(C)C)C(O)=C(C(N)=O)C(=O)[C@@]3(O)C(O)=C1C2=O [Example 19, (6aR,7aS,8S,11aS)-5,8-bis(dimethylamino)-9,11a,12-trihydroxy-2-(1-methyl-1H-indol-2-yl)-11,13-dioxo-6,6a,7,7a,8,11,11a,13-octahydrotetraceno[2,1-d][1,3]oxazole-10-carboxamide]",MIC,[1],4 µg/mL
same,MIC,[2],4 µg/mL
same,MIC,[3],> 64 µg/mL
same,MIC,[4],8 µg/mL
same,MIC,[5],4 µg/mL
same,MIC,[6],4 µg/mL
same,MIC,[7],8 µg/mL
same,MIC,[8],> 64 µg/mL
same,MIC,[9],4 µg/mL
same,MIC,[10],> 64 µg/mL
same,MIC,[11],> 64 µg/mL
same,MIC,[12],> 64 µg/mL
same,MIC,[13],8 µg/mL
same,MIC,[14],4 µg/mL
same,MIC,[15],16 µg/mL
same,MIC,[16],> 64 µg/mL
same,MIC,[17],4 µg/mL
same,MIC,[18],4 µg/mL
"CN(C)c1cc2nc(-c3ccco3)oc2c2c1C[C@H]1C[C@H]3[C@H](N(C)C)C(O)=C(C(N)=O)C(=O)[C@@]3(O)C(O)=C1C2=O [Example 20, (6aR,7aS,8S,1aS)-5,8-bis(dimethylamino)-2-(2-furyl)-9,11a,1 2-trihydroxy-11,13-dioxo-6,6a,7,7a,8,11,11a,13-octahydrotetraceno[2,1-d][1,3]oxazole-10-carboxamide]",MIC,[1],32 µg/mL
same,MIC,[2],> 64 µg/mL
same,MIC,[3],> 64 µg/mL
same,MIC,[4],64 µg/mL
same,MIC,[5],32 µg/mL
same,MIC,[6],32 µg/mL
same,MIC,[7],32 µg/mL
same,MIC,[8],> 64 µg/mL
same,MIC,[9],32 µg/mL
same,MIC,[10],> 64 µg/mL
same,MIC,[11],> 64 µg/mL
same,MIC,[12],> 64 µg/mL
same,MIC,[13],64 µg/mL
same,MIC,[14],64 µg/mL
same,MIC,[15],32 µg/mL
same,MIC,[16],> 64 µg/mL
same,MIC,[17],32 µg/mL
same,MIC,[18],32 µg/mL
"CN(C)c1cc2nc(/C=C/c3ccco3)oc2c2c1C[C@H]1C[C@H]3[C@H](N(C)C)C(O)=C(C(N)=O)C(=O)[C@@]3(O)C(O)=C1C2=O [Example 22, (6aR,7aS,8S,11aS)-5,8-bis(dimethylamino)-2-[(E)-2-(2-furyl)ethenyl]-9,11a,12-trihydroxy-11,13-dioxo-6,6a,7,7a,8,11,11a,13-octahydrotetraceno[2,1-d][1,3]oxazole-10-carboxamide]",MIC,[1],8 µg/mL
same,MIC,[2],32 µg/mL
same,MIC,[3],> 64 µg/mL
same,MIC,[4],8 µg/mL
same,MIC,[5],8 µg/mL
same,MIC,[6],8 µg/mL
same,MIC,[7],16 µg/mL
same,MIC,[8],> 64 µg/mL
same,MIC,[9],8 µg/mL
same,MIC,[10],> 64 µg/mL
same,MIC,[11],> 64 µg/mL
same,MIC,[12],> 64 µg/mL
same,MIC,[13],8 µg/mL
same,MIC,[14],32 µg/mL
same,MIC,[15],16 µg/mL
same,MIC,[16],> 64 µg/mL
same,MIC,[17],8 µg/mL
same,MIC,[18],8 µg/mL
"CN(C)c1cc2nc(-c3nccs3)oc2c2c1C[C@H]1C[C@H]3[C@H](N(C)C)C(O)=C(C(N)=O)C(=O)[C@@]3(O)C(O)=C1C2=O [Example 24, (6aR,7aS,8S,11aS)-5,8-bis(dimethylamino)-9,11a,12-trihydroxy-11,13-dioxo-2-(1,3-thiazol-2-yl)-6,6a,7,7a,8,11,11a,13-octahydrotetraceno[2,1-d][1,3]oxazole-10-carboxamide]",MIC,[1],32 µg/mL
same,MIC,[2],64 µg/mL
same,MIC,[3],> 64 µg/mL
same,MIC,[4],32 µg/mL
same,MIC,[5],64 µg/mL
same,MIC,[6],32 µg/mL
same,MIC,[7],32 µg/mL
same,MIC,[8],> 64 µg/mL
same,MIC,[9],32 µg/mL
same,MIC,[10],> 64 µg/mL
same,MIC,[11],> 64 µg/mL
same,MIC,[12],> 64 µg/mL
same,MIC,[13],32 µg/mL
same,MIC,[14],64 µg/mL
same,MIC,[15],> 64 µg/mL
same,MIC,[16],> 64 µg/mL
same,MIC,[17],32 µg/mL
same,MIC,[18],32 µg/mL
"CN(C)c1cc2nc(/C=C/c3ccccc3)oc2c2c1C[C@H]1C[C@H]3[C@H](N(C)C)C(O)=C(C(N)=O)C(=O)[C@@]3(O)C(O)=C1C2=O [Example 25, (6aR,7aS,8S,11aS)-5,8-bis(dimethylamino)-9,1a,12-trihydroxy-11,13-dioxo-2-[(E)-2-phenylethenyl]-6,6a,7,7a,8,11,11a,13-octahydrotetraceno[2,1-d][1,3]oxazole-10-carboxamide]",MIC,[1],4 µg/mL
same,MIC,[2],32 µg/mL
same,MIC,[3],> 64 µg/mL
same,MIC,[4],8 µg/mL
same,MIC,[5],4 µg/mL
same,MIC,[6],8 µg/mL
same,MIC,[7],16 µg/mL
same,MIC,[8],> 64 µg/mL
same,MIC,[9],4 µg/mL
same,MIC,[10],> 64 µg/mL
same,MIC,[11],> 64 µg/mL
same,MIC,[12],> 64 µg/mL
same,MIC,[13],8 µg/mL
same,MIC,[14],32 µg/mL
same,MIC,[15],16 µg/mL
same,MIC,[16],> 64 µg/mL
same,MIC,[17],4 µg/mL
same,MIC,[18],8 µg/mL

# Reference: patent publication US20080064667A1, “OXAZOLE DERIVATIVES OF TETRACYCLINES” (Wyeth, priority 2003, published 2008)
